{"source": "patent US20070037887A1", "about": "“Blockade of mtor to prevent a hormonal adaptive response” (University of Virginia Patent Foundation, priority 2003, published 2007)", "key": {"mTOR-raptor complex": {"test_system": "T1, mTOR-raptor complex", "T1 construct": "rows headed: amount of endogenous raptor that coimmunoprecipitated with mTOR; other: extracts of nontransfected cells", "experiment": "Coimmunoprecipitation of raptor with mTOR, compound added to cell extracts or immune complexes", "format": "binding", "settings": "extracts of nontransfected cells", "experimental": "293T cells were transfected with pcDNA3 alone (Vec.) or with a combination of pcDNA3AU1-mTOR, pcDNA33HA-Raptor, and pcDNA33HA-mLST8. Extracts of the cells were incubated with increasing concentrations of FTS before AU1-mTOR was immunoprecipated. Samples of the immune complexes were incubated with [γ-^32P]ATP and recombinant [His^6]PHAS-I, then subjected to SDS-PAGE and transferred to an immobilon membrane. After obtaining a phosphorimage of the membrane to detect ^32P-PHAS-I, the membrane was immunoblotted with PThr^36/45 antibodies. Other samples of the immune complexes were subjected to SDS-PAGE and immunoblots were prepared with antibodies to the HA epitope or to mTOR (see FIG. 13A). Extracts of nontransfected 293T cells were incubated with increasing concentrations of FTS before mTOR was immunoprecipated with mTAb1. A control immunoprecipitation was conducted using nonimmune IgG (NI). Immune complexes were subjected to SDS-PAGE and immunoblots were prepared with antibodies to mLST8, mTOR, and raptor.\nSamples of extracts from 293T cells overexpressing AU1-mTOR, HA-raptor, and HA-mLST8 were incubated for 1 h with increasing concentrations of FTS (●, ▴, ▪) or GTS (∘, Δ, □) before immunoprecipitations were conducted with anti-AU1 antibodies. mTOR kinase activity (●, ∘) was determined by measuring ^32P incorporation into [His^6]PHAS-I in immune complex kinases assays performed with [γ-^32P]ATP (see FIG. 14A). The relative amounts of HA-raptor (▴, Δ) and HA-mLST8 (▪, □) that coimmunoprecipitated with AU1-mTOR were determined after immunoblotting with anti-HA antibodies (see FIG. 14B). The results (mean values+S.E. from 5 experiments) are expressed as percentages of the mTOR activity (FIG. 14A) or coimmunoprecipitating proteins (FIG. 14B) from samples incubated without FTS or GTS, and have been corrected for the amounts of AU1-mTOR immunoprecipitated.\n293T cells were transfected with pcDNA3 alone (Vec.) or with a combination of pcDNA3AU1-mTOR, pcDNA33HARaptor, and pcDNA33HA-mLST8. AU1-mTOR was immunoprecipitated and samples of the washed immune complexes were at incubated […] for 30 min with no inhibitors or with the following: caffeine (1 mM), FTS (50 μM), LY294002 (10 μM), rapamycin (1 μM) plus FKBP12 (10 μM), and 1 μM wortmannin. To prevent destruction of wortmannin, incubations were conducted in the absence of thiol reducing agents. Samples of the immune complexes were incubated for 10 min with 10 mM MnCl2, 1 mM [γ-^32P]ATP, and 50 μg/ml [His^6]PHAS-I to assess mTOR activity. Other samples were rinsed twice, subjected to SDS-PAGE, and immunoblotted with anti-HA and anti-AU1 antibodies to determine the amounts of HA-raptor and HA-mLST8 associated with AU1-mTOR. The relative amounts of ^32P incorporated into PHAS-I were determined by phosphorimaging (see FIG. 15B)."}, "Solubility in buffer": {"experiment": "Solubility in buffer", "format": "physicochemical"}}, "data": [{"smiles": "CC(C)=CCC/C(C)=C/CC/C(C)=C/CSc1ccccc1C(=O)O", "note": "[FTS, farnesylthiosalicylic acid]", "values": [{"measurement": "amount of endogenous raptor that coimmunoprecipitated with mTOR", "setting": "mTOR-raptor complex", "value": "decreased"}, {"measurement": "solubility in buffer", "setting": "Solubility in buffer", "value": "only limited solubility"}]}]}
